Laboratory results as given in patent US12492193B2, “Pyrazole derivatives for the treatment of cystic fibrosis” (Fondazione Istituto Italiano Di Tecnologia, priority 2017, dated 2025).

Target: T1, mutant CFTR (Homo sapiens, UniProt P13569, DEL508-508)
T1 construct: expressed in transfected cells
Assay: Fluorescence (HS-YFP) assay for CFTR activity, corrector assay
Type: cell-based
Details: CFBE41o- and FRT cells with stable expression of mutant CFTR, 24 h compound treatment
How it was run: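 CFBE41o- or FRT cells stably expressing mutant CFTR and HS-YFP were exposed to compounds for 24 h (corrector mode), then stimulated 30 min at 37° C with forskolin (20 μM) plus genistein (50 μM). YFP quenching after 100 mM iodide injection; initial slope from exponential fit of final 10 s; EC50 reported.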

T1 sequence (P13569 with tags, fused parts or gaps DEL508-508): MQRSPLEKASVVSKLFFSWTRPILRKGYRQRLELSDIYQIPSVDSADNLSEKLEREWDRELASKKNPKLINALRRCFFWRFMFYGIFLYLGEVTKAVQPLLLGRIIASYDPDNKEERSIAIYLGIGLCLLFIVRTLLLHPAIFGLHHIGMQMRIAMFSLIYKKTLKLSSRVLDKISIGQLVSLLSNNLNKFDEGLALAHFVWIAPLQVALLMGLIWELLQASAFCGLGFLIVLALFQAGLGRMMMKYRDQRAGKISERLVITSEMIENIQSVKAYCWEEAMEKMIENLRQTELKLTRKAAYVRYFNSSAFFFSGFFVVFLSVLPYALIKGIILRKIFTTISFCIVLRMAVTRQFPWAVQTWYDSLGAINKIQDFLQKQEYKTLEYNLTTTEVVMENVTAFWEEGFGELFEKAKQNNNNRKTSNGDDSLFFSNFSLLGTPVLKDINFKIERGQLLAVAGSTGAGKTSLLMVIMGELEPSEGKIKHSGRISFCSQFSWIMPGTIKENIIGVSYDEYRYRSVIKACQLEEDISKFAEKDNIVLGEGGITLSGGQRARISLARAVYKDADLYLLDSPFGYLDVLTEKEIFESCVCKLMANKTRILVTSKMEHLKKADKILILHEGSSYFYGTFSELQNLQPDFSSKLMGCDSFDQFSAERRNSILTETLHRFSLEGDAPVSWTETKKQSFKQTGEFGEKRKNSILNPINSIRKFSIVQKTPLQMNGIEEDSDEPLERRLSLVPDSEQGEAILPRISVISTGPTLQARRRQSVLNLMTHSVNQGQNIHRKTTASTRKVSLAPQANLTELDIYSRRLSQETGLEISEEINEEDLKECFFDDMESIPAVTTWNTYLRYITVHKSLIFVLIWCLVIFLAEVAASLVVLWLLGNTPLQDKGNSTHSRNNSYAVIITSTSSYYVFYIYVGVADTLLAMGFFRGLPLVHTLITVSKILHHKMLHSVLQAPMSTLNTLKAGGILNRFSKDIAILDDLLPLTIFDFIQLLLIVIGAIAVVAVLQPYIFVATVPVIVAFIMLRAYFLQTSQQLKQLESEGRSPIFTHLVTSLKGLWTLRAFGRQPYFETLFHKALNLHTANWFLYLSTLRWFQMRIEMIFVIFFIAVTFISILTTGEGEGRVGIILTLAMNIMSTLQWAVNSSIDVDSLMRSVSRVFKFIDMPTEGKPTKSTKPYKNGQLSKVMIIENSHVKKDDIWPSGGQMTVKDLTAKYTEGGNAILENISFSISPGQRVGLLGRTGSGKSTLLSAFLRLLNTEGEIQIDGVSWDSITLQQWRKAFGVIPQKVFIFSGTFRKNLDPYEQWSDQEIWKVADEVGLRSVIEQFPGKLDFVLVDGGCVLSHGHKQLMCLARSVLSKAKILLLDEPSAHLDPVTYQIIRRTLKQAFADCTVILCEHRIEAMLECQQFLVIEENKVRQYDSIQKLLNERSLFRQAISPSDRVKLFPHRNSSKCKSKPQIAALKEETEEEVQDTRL

Row | Structure (SMILES) | EC50
1 | Cc1c(C#N)c(C(F)(F)F)nn1-c1cccc(C(=O)N(C)c2ccc3c(c2)OCO3)c1 [compound 187, N-(1,3-Benzodioxol-5-yl)-3-[4-cyano-5-methyl-3-(trifluoromethyl)pyrazol-1-yl]-N-methyl-benzamide] | < 1 µM
2 | Cc1c(Cl)c(C(F)(F)F)nn1-c1cccc(C(=O)N(C)c2ccc3cn(C)nc3c2)c1 [compound 122, 3-[4-Chloro-5-methyl-3-(trifluoromethyl)pyrazol-1-yl]-N-methyl-N-(2-methylindazol-6-yl)benzamide] | 1 to 2 µM
3 | Cc1nc2ccc(N(C)C(=O)c3cccc(-n4nc(C(F)(F)F)c(Cl)c4C4CC4)c3)cc2o1 [compound 137, 3-[4-Chloro-5-cyclopropyl-3-(trifluoromethyl)pyrazol-1-yl]-N-methyl-N-(2-methyl-3-benzoxazol-6-yl)benzamide] | < 1 µM
4 | Cc1nn(-c2cccc(C(=O)Nc3ccc4c(c3)COC4)c2)c(C)c1Cl [Int-051] | > 2 µM
5 | CN(C(=O)c1cccc(-n2nc(-c3ccccn3)cc2C(F)(F)F)c1)c1ccc2c(c1)OCO2 [compound 192, N-(1,3-benzodioxol-5-yl)-N-methyl-3-[3-(2-pyridyl)-5-(trifluoromethyl)pyrazol-1-yl]benzamide] | 1 to 2 µM
6 | CN(C(=O)c1cccc(-n2nc(C(F)(F)F)cc2OCc2ccccc2)c1)c1ccc2c(c1)OCO2 [compound 132, N-(1,3-benzodioxol-5-yl)-3-[5-benzyloxy-3-(trifluoromethyl)pyrazol-1-yl]-N-methyl-benzamide] | < 1 µM
7 | COC(=O)c1ccc(COc2cc(C(F)(F)F)nn2-c2cccc(C(=O)N(C)c3ccc4c(c3)OCO4)c2)cc1 [compound 152, Methyl-4-[[2-[3-[1,3-benzodioxol-5-yl(methyl)carbamoyl]phenyl]-5-(trifluoromethyl)pyrazol-3-yl]oxymethyl]benzoate] | < 1 µM
8 | CCOC(=O)c1cc(C(F)(F)F)nn1-c1cccc(C(=O)N(C)c2ccc3c(c2)OCO3)c1 [compound 130, Ethyl 2-[3-[1,3-benzodioxol-5-yl(methyl)carbamoyl]phenyl]-5-(trifluoromethyl)pyrazole-3-carboxylate] | < 1 µM
9 | COCc1c(Cl)c(C)nn1-c1cccc(C(=O)N(C)c2ccc3c(c2)OCO3)c1 [compound 107, N-(1,3-benzodioxol-5-yl)-3-[4-chloro-5-(methoxymethyl)-3-methyl-pyrazol-1-yl]-N-methyl-benzamide] | < 1 µM
10 | Cc1nn(-c2cccc(C(=O)N(c3ccc4c(c3)OCCO4)C3CC3)c2)c(C)c1Cl [compound 030, 3-(4-Chloro-3,5-dimethyl-pyrazol-1-yl)-N-cyclopropyl-N-(2,3-dihydro-1,4-benzodioxin-6-yl)benzamide] | > 2 µM
11 | Cc1nn(-c2cc(C(=O)N(C)c3ccc4c(c3)OCO4)ccn2)c(C(F)(F)F)c1Cl [compound 170, N-(1,3-Benzodioxol-5-yl)-2-[4-chloro-3-methyl-5-(trifluoromethyl)pyrazol-1-yl]-N-methyl-pyridine-4-carboxamide] | > 2 µM
12 | Cc1nc2cc(Cl)c(N(C)C(=O)c3cccc(-n4nc(C(F)(F)F)c(Cl)c4C)c3)cc2o1 [compound 123, N-(5-Chloro-2-methyl-1,3-benzoxazol-6-yl)-3-[4-chloro-5-methyl-3-(trifluoromethyl)pyrazol-1-yl]-N-methyl-benzamide] | < 1 µM
13 | Cc1c(Cl)c(C(F)(F)F)nn1-c1cccc(C(=O)Nc2cc3c(cc2C(=O)O)OCO3)c1 [Int-178, 6-[[3-[4-chloro-5-methyl-3-(trifluoromethyl)pyrazol-1-yl]benzoyl]amino]-1,3-benzodioxole-5-carboxylic acid] | > 2 µM
14 | Cc1c(Cl)c(C(F)(F)F)nn1-c1cccc(C(=O)N(C)c2ccc3c(c2)OC(F)(F)O3)c1 [compound 095, 3-[4-Chloro-5-methyl-3-(trifluoromethyl)pyrazol-1-yl]-N-(2,2-difluoro-1,3-benzodioxol-5-yl)-N-methyl-benzamide] | < 1 µM
15 | CN(C(=O)c1cccc(-n2nc(C(F)(F)F)c(Cl)c2COc2ccc(C(=O)O)cc2)c1)c1ccc2c(c1)OCO2 [compound 151, 4-[[2-[3-[1,3-benzodioxol-5-yl(methyl)carbamoyl]phenyl]-4-chloro-5-(trifluoromethyl)pyrazol-3-yl]methoxy]benzoic acid] | < 1 µM
16 | Cc1nn(-c2cccc(C(=O)N(C)c3ccc4c(c3)OCO4)c2)c([C@H](O)c2ccccc2)c1Cl (racemic) [compound 109, N-(1,3-benzodioxol-5-yl)-3-[4-chloro-5-[(rac)-hydroxy(phenyl)methyl]-3-methyl-pyrazol-1-yl]-N-methyl-benzamide] | < 1 µM
17 | Cc1nc2cc(F)c(N(C)C(=O)c3cccc(-n4nc(C(F)(F)F)c(Cl)c4COc4ccc(C(=O)O)cc4)c3)cc2o1 [compound 234, 4-[[4-Chloro-2-[3-[(5-fluoro-2-methyl-1,3-benzoxazol-6-yl)-methyl-carbamoyl]phenyl]-5-(trifluoromethyl)pyrazol-3-yl]methoxy]benzoic acid] | < 1 µM

Row | Structure (SMILES) | EC50
18 | CN(C(=O)c1cccc(-n2nc(C(F)(F)F)c(Cl)c2CO[C@H]2CC[C@H](C(=O)O)CC2)c1)c1ccc2c(c1)OC(F)(F)O2 [compound 228, Trans-4-[[4-chloro-2-[3-[(2,2-difluoro-1,3-benzodioxol-5-yl)-methyl-carbamoyl]phenyl]-5-(trifluoromethyl)pyrazol-3-yl]methoxy]cyclohexanecarboxylic acid] | < 1 µM
19 | CCc1nn(-c2cccc(C(=O)N(C)c3ccc4c(c3)OCO4)c2)c(CC)c1Cl [compound 092, N-(1,3-Benzodioxol-5-yl)-3-(4-chloro-3,5-diethyl-pyrazol-1-yl)-N-methyl-benzamide] | < 1 µM
20 | Cc1cc(CO)n(-c2cccc(C(=O)N(C)c3ccc4c(c3)OCO4)c2)n1 [compound 070, N-(1,3-Benzodioxol-5-yl)-3-[5-(hydroxymethyl)-3-methyl-pyrazol-1-yl]-N-methyl-benzamide] | > 2 µM
21 | CNC(=O)c1c(Cl)c(C)nn1-c1cccc(C(=O)N(C)c2ccc3c(c2)OCO3)c1 [compound 085, 2-[3-[1,3-benzodioxol-5-yl(methyl)carbamoyl]phenyl]-4-chloro-N,5-dimethyl-pyrazole-3-carboxamide] | > 2 µM
22 | CCOC(=O)c1nn(-c2cccc(C(=O)N(C)c3ccc4c(c3)OCO4)c2)c(C(C)C)c1Cl [compound 086, Ethyl 1-[3-[1,3-benzodioxol-5-yl(methyl)carbamoyl]phenyl]-4-chloro-5-isopropyl-pyrazole-3-carboxylate] | > 2 µM
23 | Cc1nn(-c2cccc(C(=O)N(C)c3ccc4c(c3)OCO4)c2)c([C@@H](C)O)c1Cl (racemic) [compound 114, N-(1,3-benzodioxol-5-yl)-3-[4-chloro-5-[(rac)-1-hydroxyethyl]-3-methyl-pyrazol-1-yl]-N-methyl-benzamide] | > 2 µM
24 | Cc1c(Cl)c(C(F)(F)F)nn1-c1cccc(C(=O)N(C)c2cc3c(cc2Cl)OCO3)c1 [compound 106, N-(6-Chloro-1,3-benzodioxol-5-yl)-3-[4-chloro-5-methyl-3-(trifluoromethyl)pyrazol-1-yl]-N-methyl-benzamide] | < 1 µM
25 | Cc1c(Cl)c(C(N)=O)nn1-c1cccc(C(=O)N(C)c2ccc3c(c2)OCO3)c1 [compound 074, 1-[3-[1,3-Benzodioxol-5-yl(methyl)carbamoyl]phenyl]-4-chloro-5-methyl-pyrazole-3-carboxamide] | > 2 µM
26 | Cc1c(C2CC2)c(C(F)(F)F)nn1-c1cccc(C(=O)N(C)c2ccc3c(c2)OCO3)c1 [compound 104, N-(1,3-Benzodioxol-5-yl)-3-[4-cyclopropyl-5-methyl-3-(trifluoromethyl)pyrazol-1-yl]-N-methyl-benzamide] | < 1 µM
27 | Cc1nn(-c2cccc(C(=O)N(C)c3ccc4c(c3)OCO4)c2)c(CO)c1Cl [compound 105, N-(1,3-benzodioxol-5-yl)-3-[4-chloro-5-(hydroxylmethyl)-3-methyl-pyrazol-1-yl]-N-methyl-benzamide] | 1 to 2 µM
28 | O=C(O)c1ccc(OCc2c(Cl)c(C(F)(F)F)nn2-c2cccc(C(=O)Nc3ccc4c(c3)OC(F)(F)O4)c2)cc1 [compound 174, 4-[[4-Chloro-2-[3-[(2,2-difluoro-1,3-benzodioxol-5-yl)carbamoyl]phenyl]-5-(trifluoromethyl)pyrazol-3-yl]methoxy] benzoic acid] | > 2 µM
29 | CN(C(=O)c1cccc(-n2nc(C(F)(F)F)cc2OC2CCN(C(=O)CCC(=O)O)CC2)c1)c1ccc2c(c1)OC(F)(F)O2 [compound 264, 4-[4-[2-[3-[(2,2-Difluoro-1,3-benzodioxol-5-yl)-methyl-carbamoyl]phenyl]-5-(trifluoromethyl)pyrazol-3-yl]oxy-1-piperidyl]-4-oxo-butanoic acid] | 1 to 2 µM
30 | Cc1nn(-c2cccc(C(=O)N(C)c3cccc4c3OC(F)(F)O4)c2)c(C)c1Cl [compound 026, 3-(4-Chloro-3,5-dimethyl-pyrazol-1-yl)-N-(2,2-difluoro-1,3-benzodioxol-4-yl)-N-methyl-benzamide] | > 2 µM
31 | Cc1nc2ncc(N(C)C(=O)c3cccc(-n4nc(C(F)(F)F)c(Cl)c4C)c3)cc2o1 [compound 261, 3-[4-Chloro-5-methyl-3-(trifluoromethyl)pyrazol-1-yl]-N-methyl-N-(2-methyloxazolo[4,5-b]pyridin-6-yl)benzamide] | 1 to 2 µM
32 | Cc1nn(-c2cccc(C(=O)N(C)c3ccc4c(c3)OCO4)c2)c(C2CC2)c1Cl [compound 094, N-(1,3-Benzodioxol-5-yl)-3-(4-chloro-5-cyclopropyl-3-methyl-pyrazol-1-yl)-N-methyl-benzamide] | < 1 µM
33 | Cc1nc2ccc(N(C)C(=O)c3cccc(-n4nc(C(F)(F)F)cc4OCc4ccc(C(=O)OC(C)(C)C)cc4)c3)cc2o1 [compound 188, Tert-butyl 4-[[2-[3-[methyl-(2-methyl-1,3-benzoxazol-6-yl)carbamoyl]phenyl]-5-(trifluoromethyl)pyrazol-3-yl]oxymethyl]benzoate] | < 1 µM
